Among the test systems are SF-268; PC-3; SN12C; U-251; NCI/ADR-RES; COLO 205; MCF7; RXF 393; SW-620; EKVX; NCI-H460; MOLT-4; NCI-H522; A498; SNB-19; OVCAR-3; 786-0; SF-295; MDA-MB-231; HCC 2998.
Common to all, as to test: DTP human tumour cell line panel, 48 h

SMILES strings stand for the structures.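 Method: 48-hour compound exposure of cells in 96-well plates, five concentrations, linear interpolation of endpoints. GI50 marks 50% less growth.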 The source made the active and inactive calls. Cut-off read from the data, not from the text of the source: active = GI50 up to about 1.1 µM and inactive = higher.

One may read the GI50 as the concentration at which growth is held to half of that of the control. As to `OCCCNCc1ccccn1`, the GI50 in the assay on SF-268, with PC-3, with SN12C, with U-251, in the assay with NCI/ADR-RES and in the assay with COLO 205 was > 100 µM (inactive) each time. In addition, the GI50 in the assay on MCF7, with RXF 393, in the assay with SW-620, with EKVX, in the assay with NCI-H460 and in the assay with MOLT-4 was > 100 µM (inactive) in each case. The GI50 in the assay on NCI-H522, with A498, in the assay on SNB-19, with OVCAR-3, in the assay with 786-0 and in the assay on SF-295 was > 100 µM (inactive) each time. Further, in the assay with MDA-MB-231, the GI50 is > 100 µM (inactive).

Regarding `Cc1nc(=O)[nH]c2s/c(=N/C3CCCCC3)n(C3CCCCC3)c(=O)c12`, the GI50 with PC-3, with SN12C, in the assay with HCC 2998, in the assay with U-251, with NCI/ADR-RES and in the assay on COLO 205 was > 100 µM (inactive) throughout. The GI50 in the assay on MCF7, with SW-620, in the assay with EKVX, with MOLT-4, in the assay with NCI-H522 and in the assay on A498 was > 100 µM (inactive) throughout. The GI50 in the assay on SNB-19, in the assay with OVCAR-3, in the assay on 786-0, in the assay on SF-295 and in the assay on MDA-MB-231 was > 100 µM (inactive) in each case.

As to `CC(C)(CN)SCc1ccccc1`, the GI50 in the assay on SF-268, in the assay on PC-3, in the assay with SN12C, in the assay on U-251, in the assay with NCI/ADR-RES and with COLO 205 was > 100 µM (inactive) in each case. The GI50 in the assay with MCF7, in the assay with RXF 393, in the assay on SW-620, in the assay on EKVX, with NCI-H460 and in the assay on MOLT-4 was > 100 µM (inactive) throughout. For the same molecule, the GI50 in the assay with NCI-H522, in the assay on A498, with SNB-19, with OVCAR-3, in the assay with 786-0 and with SF-295 was > 100 µM (inactive) each time. In addition, the GI50 with MDA-MB-231 is > 100 µM (inactive).

In the case of `CCCCC1=C(C(=O)N2CCOCC2)C2(OCCO2)C1Cl` (stereo unspecified), the GI50 in the assay with SF-268 is 40.8 µM (inactive); in the assay with PC-3 it was 35.6 µM (inactive); with SN12C, 22.2 µM (inactive); in the assay on U-251 it was 35.8 µM (inactive); in the assay on NCI/ADR-RES, 45.9 µM (inactive); with COLO 205, 23.1 µM (inactive). The GI50 in the assay on MCF7 was 20 µM (inactive); in the assay with RXF 393, 29.5 µM (inactive); in the assay on SW-620, 31 µM (inactive); in the assay on EKVX, 47.1 µM (inactive); in the assay with MOLT-4 it was > 100 µM (inactive); with NCI-H522 it was 27.1 µM (inactive). For the same molecule, the GI50 with A498 is 66.7 µM (inactive); in the assay with SNB-19, 32.3 µM (inactive); in the assay with 786-0, 36.4 µM (inactive); in the assay on SF-295, 28.1 µM (inactive); in the assay with MDA-MB-231, 64 µM (inactive).

For `CC[C@@H]1C[C@@H](O)[C@@H]2[C@H](O)[C@H](O)CN2C1`, the GI50 with SF-268, in the assay on PC-3, with SN12C, with HCC 2998, with U-251 and in the assay with NCI/ADR-RES was > 100 µM (inactive) in each case. Besides, the GI50 in the assay on COLO 205, in the assay on MCF7, with SW-620, in the assay on EKVX, in the assay with NCI-H460 and in the assay with MOLT-4 was > 100 µM (inactive) in each case. The GI50 in the assay on NCI-H522, in the assay with A498, in the assay on SNB-19, in the assay with OVCAR-3, in the assay on 786-0 and in the assay on SF-295 was > 100 µM (inactive) in each case. Besides, the GI50 in the assay on MDA-MB-231 is > 100 µM (inactive).

Regarding `CC1(C)C2CCC1(C)C(N/C(=C(/C(Cl)=C(Cl)Cl)[N+](=O)[O-])n1nnc3ccccc31)C2` (stereo unspecified), the GI50 with SF-268 is 17.6 µM (inactive); with PC-3 it was 21.1 µM (inactive); with SN12C it was 41.8 µM (inactive); with HCC 2998, 40.6 µM (inactive); with U-251, 19.2 µM (inactive); in the assay with NCI/ADR-RES, 27.5 µM (inactive). The GI50 was 18.5 µM (inactive) with COLO 205; 32.4 µM (inactive) in the assay on MCF7; 19.2 µM (inactive) in the assay with RXF 393; 27.2 µM (inactive) in the assay with SW-620; 32.4 µM (inactive) in the assay with EKVX; 37.2 µM (inactive) with NCI-H460. Also, the GI50 in the assay with A498 is 19.9 µM (inactive); with SNB-19, 25.1 µM (inactive); in the assay with OVCAR-3, 12.4 µM (inactive); with 786-0 it was 41.1 µM (inactive); with SF-295, 24.3 µM (inactive); with MDA-MB-231 it was 22.5 µM (inactive).

`N=C(N)C1CN(CC=O)C(=O)NC1=O` (stereo unspecified): the GI50 in the assay on SF-268, with PC-3, in the assay with SN12C, in the assay on HCC 2998, in the assay on U-251 and in the assay with NCI/ADR-RES was > 100 µM (inactive) each time. Further, the GI50 with COLO 205, in the assay with MCF7, with SW-620, with EKVX, in the assay with NCI-H460 and with MOLT-4 was > 100 µM (inactive) in each case. In addition, the GI50 in the assay with A498, in the assay with SNB-19, with OVCAR-3, in the assay with 786-0, in the assay on SF-295 and in the assay on MDA-MB-231 was > 100 µM (inactive) throughout.

`S=C(Nc1ccc(/N=N/c2ccccc2)cc1)SCc1ccccc1`: the GI50 in the assay on SF-268 was 17 µM (inactive); in the assay with PC-3, 15 µM (inactive); in the assay on SN12C it was 15.7 µM (inactive); in the assay with U-251 it was 16.2 µM (inactive); in the assay with NCI/ADR-RES it was 17.8 µM (inactive); in the assay with COLO 205, 23.1 µM (inactive). For the same molecule, the GI50 in the assay with MCF7 is 23.3 µM (inactive); in the assay on RXF 393, 19.6 µM (inactive); in the assay on SW-620, 20.6 µM (inactive); in the assay with EKVX, 24.8 µM (inactive); in the assay with NCI-H460 it was 20.2 µM (inactive); in the assay with MOLT-4 it was 12.1 µM (inactive). Moreover, the GI50 in the assay on NCI-H522 was 16.9 µM (inactive); in the assay with A498, 19.9 µM (inactive); in the assay with SNB-19, 18.5 µM (inactive); in the assay with OVCAR-3, 15.6 µM (inactive); in the assay on 786-0 it was 17.8 µM (inactive); in the assay on SF-295, 17.9 µM (inactive). The GI50 with MDA-MB-231 was 14.7 µM (inactive).

As for `CC(=O)OCC1OC(N2C(=O)CC(N)=Nc3ccccc32)C(OC(C)=O)C(OC(C)=O)C1OC(C)=O` (stereo unspecified), the GI50 is 45.4 µM (inactive) with SF-268; 42.6 µM (inactive) with PC-3; 58.2 µM (inactive) in the assay with SN12C; 75.7 µM (inactive) with HCC 2998; 59.7 µM (inactive) with U-251; 45.3 µM (inactive) in the assay on NCI/ADR-RES. In addition, the GI50 in the assay on COLO 205 is 15.1 µM (inactive); in the assay on MCF7, 29.4 µM (inactive); in the assay on RXF 393, 23.1 µM (inactive); in the assay on SW-620, 87.5 µM (inactive); in the assay on EKVX, 83.2 µM (inactive); in the assay on NCI-H460, 55.5 µM (inactive). The GI50 is 16.7 µM (inactive) in the assay with MOLT-4; 62.8 µM (inactive) in the assay on A498; > 100 µM (inactive) with SNB-19; 52.6 µM (inactive) in the assay on OVCAR-3; > 100 µM (inactive) in the assay on 786-0; 74 µM (inactive) in the assay on SF-295. For the same molecule, the GI50 in the assay on MDA-MB-231 was > 100 µM (inactive).

For the molecule `COC(=O)C1CCC(=O)N1CN(C(C)=O)c1ccccc1` (stereo unspecified), the GI50 in the assay on SF-268, in the assay on PC-3, with SN12C, in the assay with U-251, in the assay on NCI/ADR-RES and in the assay on COLO 205 was > 100 µM (inactive) throughout. The GI50 in the assay with MCF7, in the assay on SW-620, with EKVX, in the assay on NCI-H460, in the assay on MOLT-4 and with NCI-H522 was > 100 µM (inactive) throughout. Moreover, the GI50 in the assay with A498, in the assay with SNB-19, with OVCAR-3, in the assay with 786-0, in the assay on SF-295 and in the assay on MDA-MB-231 was > 100 µM (inactive) throughout.

For `O=C1c2ccccc2-c2oc(=O)c3ccccc3c21`, the GI50 with PC-3, with SN12C, in the assay on U-251, with NCI/ADR-RES, in the assay on COLO 205 and in the assay on MCF7 was > 100 µM (inactive) each time. The GI50 in the assay on RXF 393 is > 100 µM (inactive); in the assay with SW-620, > 100 µM (inactive); in the assay with EKVX it was 24.8 µM (inactive); in the assay with NCI-H460 it was > 100 µM (inactive); with MOLT-4 it was > 100 µM (inactive); in the assay with NCI-H522, 0.962 µM (active). Also, the GI50 in the assay on A498, in the assay with SNB-19, with OVCAR-3, in the assay on 786-0, with SF-295 and in the assay on MDA-MB-231 was > 100 µM (inactive) in each case.

Source of the values: ChEMBL document CHEMBL1201862, “PubChem BioAssay data set” (2004).
